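Cultured in 96-well plates, cells were exposed to test compound for 48 hours across five concentrations. The concentration for full growth arrest is given as TGI.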
Tests used:
Assay in all cases: NCI-60 cell line screen, 48 h
786-0 renal = tested on: 786-0 renal
A549 NSCLC = tested on: A549 NSCLC
ACHN renal = tested on: ACHN renal
CAKI-1 renal = tested on: CAKI-1 renal
CCRF-CEM leukemia = tested on: CCRF-CEM leukemia
COLO 205 colon = tested on: COLO 205 colon
DU-145 prostate = tested on: DU-145 prostate
EKVX NSCLC = tested on: EKVX NSCLC
HCT-116 colon = tested on: HCT-116 colon
HCT-15 colon = tested on: HCT-15 colon
HL-60(TB) leukemia = tested on: HL-60(TB) leukemia
HOP-62 NSCLC = tested on: HOP-62 NSCLC
HOP-92 NSCLC = tested on: HOP-92 NSCLC
HS 578T breast = tested on: HS 578T breast
HT29 colon = tested on: HT29 colon
IGROV1 ovarian = tested on: IGROV1 ovarian
K-562 leukemia = tested on: K-562 leukemia
KM12 colon = tested on: KM12 colon
LOX IMVI melanoma = tested on: LOX IMVI melanoma
M14 melanoma = tested on: M14 melanoma
MALME-3M melanoma = tested on: MALME-3M melanoma
MCF7 breast = tested on: MCF7 breast
MDA-MB-231 breast = tested on: MDA-MB-231 breast
MDA-MB-435 = tested on: MDA-MB-435
MOLT-4 leukemia = tested on: MOLT-4 leukemia
NCI-H226 lung = tested on: NCI-H226 lung
NCI-H23 lung = tested on: NCI-H23 lung
NCI-H460 lung = tested on: NCI-H460 lung
NCI-H522 lung = tested on: NCI-H522 lung
NCI/ADR-RES ovarian = tested on: NCI/ADR-RES ovarian
OVCAR-3 ovarian = tested on: OVCAR-3 ovarian
OVCAR-4 ovarian = tested on: OVCAR-4 ovarian
OVCAR-5 ovarian = tested on: OVCAR-5 ovarian
OVCAR-8 ovarian = tested on: OVCAR-8 ovarian
PC-3 prostate = tested on: PC-3 prostate
RPMI-8226 leukemia = tested on: RPMI-8226 leukemia
RXF 393 renal = tested on: RXF 393 renal
SF-268 CNS = tested on: SF-268 CNS
SF-295 CNS = tested on: SF-295 CNS
SF-539 CNS = tested on: SF-539 CNS
SK-MEL-2 melanoma = tested on: SK-MEL-2 melanoma
SK-MEL-28 melanoma = tested on: SK-MEL-28 melanoma
SK-MEL-5 melanoma = tested on: SK-MEL-5 melanoma
SK-OV-3 ovarian = tested on: SK-OV-3 ovarian
SN12C renal = tested on: SN12C renal
SNB-19 CNS = tested on: SNB-19 CNS
SNB-75 CNS = tested on: SNB-75 CNS
SR leukemia = tested on: SR leukemia
SW-620 colon = tested on: SW-620 colon
T-47D breast = tested on: T-47D breast
TK-10 renal = tested on: TK-10 renal
U251 CNS = tested on: U251 CNS
UACC-257 melanoma = tested on: UACC-257 melanoma
UACC-62 melanoma = tested on: UACC-62 melanoma
UO-31 renal = tested on: UO-31 renal

Measured: TGI

COP(=O)(OC)C(O)/C=C(\Cl)c1ccc(Cl)cc1 (stereo not given)
63.4 µM: RPMI-8226 leukemia
86.1 µM: MOLT-4 leukemia
55.7 µM: NCI/ADR-RES ovarian
54.6 µM: OVCAR-8 ovarian
45.3 µM: HOP-92 NSCLC
36.2 µM: HCT-116 colon
84.6 µM: UACC-257 melanoma
50.8 µM: NCI-H23 lung
43.3 µM: OVCAR-3 ovarian
67.8 µM: SK-MEL-5 melanoma
59.1 µM: SR leukemia
49 µM: CCRF-CEM leukemia
39.3 µM: 786-0 renal
52.1 µM: LOX IMVI melanoma
> 100 µM: all other assays above

Reference: PubChem BioAssay (NCI)
